Experimental data published in ChEMBL document CHEMBL5029178, “Discovery of 3-amino-4-{(3S)-3-[(2-ethoxyethoxy)methyl]piperidin-1-yl}thieno[2,3-b]pyridine-2-carboxamide (DS96432529): A potent and orally active bone anabolic agent” (Bioorg Med Chem Lett, 2021).
Converted amounts (≈) assume the structure as drawn. Each block holds one compound with its values, some of them ahead of it. The source made the active and inactive calls. The rule behind the calls is not given here.

How the values were obtained:
ST-2 = assay: […] of alkaline phosphatase activity in mouse ST-2 cells; format: cell-based
[1] = Metabolic stability in human liver microsomes assessed as compound remaining at 0.5 mg/ml measured after 30 mins; format: ADME, Microsome; conditions: read-out: Stability
CYP3A4 [2] = molecular target: T1, CYP3A4 (Homo sapiens, UniProt P08684); assay: Time dependent inhibition of CYP3A4 in human liver microsomes assessed as parent compound remaining at 100 uM; format: ADME; conditions: read-out: TDI
[3] = Cmax in Fischer 344 rat at 3 mg/kg, po; format: ADME, organism-based; set-up: route oral, dose 3 mg/kg; conditions: in vivo
[4] = AUC (0 to 8 hrs) in Fischer 344 rat at 3 mg/kg, po; format: ADME, organism-based; set-up: time < 8 hr, route oral, dose 3 mg/kg; conditions: in vivo
Rattus norvegicus [5] = assay: Anti-osteoporosis activity in ovariectomized rat assessed as increase in bone strength at 1 mg/kg, po; format: functional, organism-based
Rattus norvegicus [6] = assay: Antiosteoporotic activity against OVX-induced rat model assessed as increase in osteocalcin secretion in serum at 3 mg/kg/day; format: functional, organism-based
CYP3A4 [7] = molecular target: T1, CYP3A4; assay: Inhibition of CYP3A4 (unknown origin) at 10 uM; format: ADME
CYP2C9 = CYP2C9 (Homo sapiens, UniProt P11712); assay: Inhibition of CYP2C9 (unknown origin) at 10 uM; format: ADME
[8] = Solubility of the compound in JP2 fluid at pH 6.8; format: physicochemical
Rattus norvegicus [9] = assay: Anti-osteoporosis activity in ovariectomized rat assessed as […] in areal bone mineral density in total humerus at 1 mg/kg, po qd measured after 14 weeks; format: functional, organism-based
Rattus norvegicus [10] = assay: Anti-osteoporosis activity in ovariectomized rat assessed as […] in areal bone mineral density in humeral diaphysis at 1 mg/kg, po qd measured after 14 weeks; format: functional, organism-based
CYP2D6 = CYP2D6 (Homo sapiens, UniProt P10635); assay: Inhibition of CYP2D6 (unknown origin) at 10 uM; format: ADME
Rattus norvegicus [11] = assay: Anti-osteoporosis activity in ovariectomized rat assessed as […] in areal bone mineral density in humeral diaphysis at 3 mg/kg, po qd measured after 14 weeks; format: functional, organism-based
Rattus norvegicus [12] = assay: Antiosteoporotic activity against OVX-induced rat model assessed as increase in deo-xypyridinoline level at 0.3 mg/kg/day; format: functional, organism-based
CYP1A2 = molecular target: T2, CYP1A2 (Homo sapiens, UniProt P05177); assay: Inhibition of CYP1A2 (unknown origin) at 10 uM; format: ADME
T2 sequence (P05177 whole entry): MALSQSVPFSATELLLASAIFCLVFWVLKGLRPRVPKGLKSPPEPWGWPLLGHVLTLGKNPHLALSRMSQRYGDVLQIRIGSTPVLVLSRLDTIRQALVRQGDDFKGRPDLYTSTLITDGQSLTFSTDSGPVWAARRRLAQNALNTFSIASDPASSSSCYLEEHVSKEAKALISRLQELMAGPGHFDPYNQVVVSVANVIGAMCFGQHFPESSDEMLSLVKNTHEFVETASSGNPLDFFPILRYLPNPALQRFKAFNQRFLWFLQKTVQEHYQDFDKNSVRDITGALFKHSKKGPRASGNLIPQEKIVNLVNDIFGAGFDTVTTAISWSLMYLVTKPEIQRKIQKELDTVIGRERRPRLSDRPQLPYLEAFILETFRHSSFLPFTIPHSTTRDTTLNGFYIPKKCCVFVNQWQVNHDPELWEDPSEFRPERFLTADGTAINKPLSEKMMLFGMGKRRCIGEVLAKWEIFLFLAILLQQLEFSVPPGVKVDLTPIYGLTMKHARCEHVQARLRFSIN

CYP2C19 = CYP2C19 (Homo sapiens, UniProt P33261); assay: Inhibition of CYP2C19 (unknown origin) at 10 uM; format: ADME
[13] = Effective permeability coefficient at pH 5 by PAMPA method; format: ADME; conditions: read-out: Peff
[14] = Effective permeability coefficient at pH 7.4 by PAMPA method; format: ADME; conditions: read-out: Peff
[15] = AUC in Fischer 344 rat at 100 mg/kg, po; format: ADME, organism-based; set-up: dose 100 mg/kg; conditions: in vivo

T1 sequence (P08684 whole entry): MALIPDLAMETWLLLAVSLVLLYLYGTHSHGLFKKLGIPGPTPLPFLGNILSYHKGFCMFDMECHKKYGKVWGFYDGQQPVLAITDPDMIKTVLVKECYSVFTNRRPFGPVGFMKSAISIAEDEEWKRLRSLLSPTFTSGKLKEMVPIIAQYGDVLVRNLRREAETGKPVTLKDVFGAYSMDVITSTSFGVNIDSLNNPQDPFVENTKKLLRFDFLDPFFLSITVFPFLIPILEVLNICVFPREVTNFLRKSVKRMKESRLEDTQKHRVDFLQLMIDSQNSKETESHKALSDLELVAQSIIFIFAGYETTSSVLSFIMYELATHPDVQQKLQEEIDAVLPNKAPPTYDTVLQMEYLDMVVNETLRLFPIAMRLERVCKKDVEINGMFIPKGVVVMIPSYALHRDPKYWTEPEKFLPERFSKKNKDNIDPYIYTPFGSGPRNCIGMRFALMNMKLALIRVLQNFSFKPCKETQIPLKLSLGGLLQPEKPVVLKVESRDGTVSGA
Chain of CYP2C9 (P11712 whole entry): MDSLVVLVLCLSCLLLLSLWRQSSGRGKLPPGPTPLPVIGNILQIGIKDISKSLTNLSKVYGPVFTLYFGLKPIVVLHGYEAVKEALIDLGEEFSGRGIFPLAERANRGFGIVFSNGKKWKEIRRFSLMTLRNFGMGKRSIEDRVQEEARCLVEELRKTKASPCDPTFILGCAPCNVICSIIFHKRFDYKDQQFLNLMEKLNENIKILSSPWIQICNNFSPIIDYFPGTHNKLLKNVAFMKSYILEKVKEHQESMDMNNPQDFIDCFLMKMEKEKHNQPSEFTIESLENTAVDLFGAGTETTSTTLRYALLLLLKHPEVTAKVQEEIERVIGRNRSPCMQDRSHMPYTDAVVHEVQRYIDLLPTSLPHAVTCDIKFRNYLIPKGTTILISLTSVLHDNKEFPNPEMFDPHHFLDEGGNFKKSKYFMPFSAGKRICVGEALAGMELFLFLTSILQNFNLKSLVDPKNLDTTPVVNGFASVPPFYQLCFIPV
Chain of CYP2D6 (P10635 whole entry): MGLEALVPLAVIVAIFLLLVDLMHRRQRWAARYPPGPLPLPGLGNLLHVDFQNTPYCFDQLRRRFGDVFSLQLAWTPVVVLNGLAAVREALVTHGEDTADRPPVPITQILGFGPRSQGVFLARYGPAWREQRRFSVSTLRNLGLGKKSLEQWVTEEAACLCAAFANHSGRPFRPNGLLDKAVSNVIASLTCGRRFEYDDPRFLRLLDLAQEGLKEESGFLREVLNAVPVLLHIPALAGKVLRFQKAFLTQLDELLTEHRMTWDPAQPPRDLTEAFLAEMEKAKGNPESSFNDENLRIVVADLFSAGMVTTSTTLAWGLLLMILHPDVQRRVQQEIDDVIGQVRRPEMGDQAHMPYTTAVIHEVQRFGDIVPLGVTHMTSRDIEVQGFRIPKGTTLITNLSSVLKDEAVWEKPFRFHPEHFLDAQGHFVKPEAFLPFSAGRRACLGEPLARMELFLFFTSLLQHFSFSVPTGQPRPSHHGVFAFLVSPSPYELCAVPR
Chain of CYP2C19 (P33261 whole entry): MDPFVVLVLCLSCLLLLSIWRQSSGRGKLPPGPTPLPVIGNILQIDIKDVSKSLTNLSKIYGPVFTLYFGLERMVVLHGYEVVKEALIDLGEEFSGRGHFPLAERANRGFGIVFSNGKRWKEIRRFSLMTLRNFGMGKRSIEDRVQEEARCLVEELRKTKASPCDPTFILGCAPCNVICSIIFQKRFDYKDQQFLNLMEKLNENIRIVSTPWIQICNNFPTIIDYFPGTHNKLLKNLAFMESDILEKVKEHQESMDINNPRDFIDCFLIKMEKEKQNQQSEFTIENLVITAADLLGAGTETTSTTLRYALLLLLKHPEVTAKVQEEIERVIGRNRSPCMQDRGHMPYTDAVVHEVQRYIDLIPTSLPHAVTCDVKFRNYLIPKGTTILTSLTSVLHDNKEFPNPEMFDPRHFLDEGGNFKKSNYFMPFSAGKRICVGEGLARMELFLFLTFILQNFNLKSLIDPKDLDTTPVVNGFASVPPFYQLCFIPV

Structure (SMILES): COCCCC1CCCN(c2ccnc3sc(C(N)=O)c(N)c23)C1 (stereo not drawn)
- EC200 (ST-2): 0.026 µg/mL

Structure (SMILES): COCC1CCCN(c2ccnc3sc(C(N)=O)c(N)c23)C1 (stereo in doubt; 9g) [listing 1 of 2 here]
- EC200 (ST-2): 0.049 µg/mL

- remaining at 0.5 h [1]: 66%
Structure (SMILES): COCC1CCCN(c2ccnc3sc(C(N)=O)c(N)c23)C1 (stereo in doubt; 9g) [listing 2 of 2 here]

Structure (SMILES): CCOCC1CCCN(c2ccnc3sc(C(N)=O)c(N)c23)C1 (stereo not drawn)
- EC200 (ST-2): 0.031 µg/mL

Structure (SMILES): COC[C@@H]1CCCN(c2ccnc3sc(C(N)=O)c(N)c23)C1
- EC200 (ST-2): 0.25 µg/mL

Structure (SMILES): COCCC1CCCN(c2ccnc3sc(C(N)=O)c(N)c23)C1 (stereo not drawn)
- EC200 (ST-2): 0.26 µg/mL

Structure (SMILES): COC(C)[C@H]1CCCN(c2ccnc3sc(C(N)=O)c(N)c23)C1 (stereo partly drawn)
- EC200 (ST-2): 0.146 µg/mL

- remaining at 100 µM (CYP3A4 [2]): 28%
Structure (SMILES): NC(=O)c1sc2nccc(N3CCCN(c4ccccc4)CC3)c2c1N
- EC200 (ST-2): 0.051 µg/mL

Structure (SMILES): CN(C)c1ccnc2sc(C(N)=O)c(N)c12
- EC200 (ST-2): 0.17 µg/mL

- Cmax [3]: 217 ng/mL
- AUC(0-t) at 8 h [4]: 756 ng·h/mL
Structure (SMILES): NC(=O)c1sc2nccc(N3CCC[C@H](COCC(=O)N4CCOCC4)C3)c2c1N
- EC200 (ST-2): 0.014 µg/mL

Structure (SMILES): NC(=O)c1sc2nccc(N3CCCC(O)C3)c2c1N (stereo not drawn)
- EC200 (ST-2): 0.17 µg/mL

Structure (SMILES): Cn1cnnc1COC[C@H]1CCCN(c2ccnc3sc(C(N)=O)c(N)c23)C1
- EC200 (ST-2): 0.168 µg/mL

Structure (SMILES): COCC1CCCN(c2ccnc3sc(C(N)=O)c(N)c23)C1 (racemic)
- EC200 (ST-2): 0.049 µg/mL

Structure (SMILES): NC(=O)c1sc2nccc(N3CCCC(CO)C3)c2c1N (stereo not drawn)
- EC200 (ST-2): 0.076 µg/mL

- remaining at 100 µM (CYP3A4 [2]): 82%
- inhibition at 10 µM (CYP3A4 [7]): 10%
- inhibition at 10 µM (CYP2C9): 2%
- solubility [8]: 500 µg/mL (≈ 1320 µM)
- Cmax [3]: 804 ng/mL
- inhibition at 10 µM (CYP2D6): 2%
- AUC(0-t) at 8 h [4]: 2000 ng·h/mL
- inhibition at 10 µM (CYP1A2): 33%
- inhibition at 10 µM (CYP2C19): 15%
Structure (SMILES): CCOCCOC[C@H]1CCCN(c2ccnc3sc(C(N)=O)c(N)c23)C1
- Activity (Rattus norvegicus [5]): Active
- Activity (Rattus norvegicus [6]): Active
- Activity (Rattus norvegicus [9]): Active
- Activity (Rattus norvegicus [10]): Active
- EC200 (ST-2): 0.024 µg/mL
- Activity (Rattus norvegicus [11]): Active
- Activity (Rattus norvegicus [12]): Active

- Cmax [3]: 188 ng/mL
- AUC(0-t) at 8 h [4]: 722 ng·h/mL
Structure (SMILES): Cc1cc(N2CCC[C@H](COCc3nc(C)no3)C2)c2c(N)c(C(N)=O)sc2n1
- EC200 (ST-2): 0.026 µg/mL

- Cmax [3]: 114 ng/mL
- AUC(0-t) at 8 h [4]: 320 ng·h/mL
- Papp [13]: 2.8 ×10⁻⁶ cm/s
- Papp [14]: 2.9 ×10⁻⁶ cm/s
Structure (SMILES): NC(=O)c1sc2nccc(N3CCC[C@H](COCCO)C3)c2c1N
- EC200 (ST-2): 0.017 µg/mL

Structure (SMILES): Cc1cc(Oc2ccc(CCCC(=O)N(C)C)cc2F)c2c(N)c(C(N)=O)sc2n1
- EC200 (ST-2): 0.0005 µg/mL

Structure (SMILES): Cc1nsc(COC[C@H]2CCCN(c3ccnc4sc(C(N)=O)c(N)c34)C2)n1
- EC200 (ST-2): 0.05 µg/mL

- solubility [8]: 560 µg/mL (≈ 1430 µM)
- Cmax [3]: 357 ng/mL
- AUC(0-t) at 8 h [4]: 1350 ng·h/mL
Structure (SMILES): CCOCCOC[C@H]1CCCN(c2cc(C)nc3sc(C(N)=O)c(N)c23)C1
- EC200 (ST-2): 0.03 µg/mL

Structure (SMILES): CN(C)C(=O)C1CCCN(c2ccnc3sc(C(N)=O)c(N)c23)C1 (stereo not drawn)
- EC200 (ST-2): > 0.3 µg/mL

Structure (SMILES): CCCOCC1CCCN(c2ccnc3sc(C(N)=O)c(N)c23)C1 (stereo not drawn)
- EC200 (ST-2): 0.095 µg/mL

- solubility [8]: 220 µg/mL (≈ 687 µM)
- Cmax [3]: 80.5 ng/mL
- AUC(0-t) at 8 h [4]: 227 ng·h/mL
Structure (SMILES): COC[C@H]1CCCN(c2ccnc3sc(C(N)=O)c(N)c23)C1
- EC200 (ST-2): 0.022 µg/mL

- Cmax [3]: 158 ng/mL
- AUC(0-t) at 8 h [4]: 563 ng·h/mL
Structure (SMILES): Cc1noc(COC[C@H]2CCCN(c3ccnc4sc(C(N)=O)c(N)c34)C2)n1
- EC200 (ST-2): 0.017 µg/mL

- Cmax [3]: 15.1 ng/mL
- AUC(0-t) at 8 h [4]: 45 ng·h/mL
Structure (SMILES): Cn1ccnc1COC[C@H]1CCCN(c2ccnc3sc(C(N)=O)c(N)c23)C1
- EC200 (ST-2): 0.019 µg/mL

Structure (SMILES): CC(C)OC[C@H]1CCCN(c2ccnc3sc(C(N)=O)c(N)c23)C1
- EC200 (ST-2): 0.057 µg/mL

- remaining at 0.5 h [1]: 18%
Structure (SMILES): CC1CCCN(c2ccnc3sc(C(N)=O)c(N)c23)C1 (stereo not drawn)
- EC200 (ST-2): 0.024 µg/mL

- remaining at 100 µM (CYP3A4 [2]): 92%
- remaining at 0.5 h [1]: 20%
- inhibition at 10 µM (CYP3A4 [7]): 23%
- inhibition at 10 µM (CYP2C9): 4%
- inhibition at 10 µM (CYP2D6): 9%
- inhibition at 10 µM (CYP1A2): 62%
- inhibition at 10 µM (CYP2C19): 0%
Structure (SMILES): NC(=O)c1sc2nccc(N3CCCCC3)c2c1N
- EC200 (ST-2): 0.067 µg/mL

Structure (SMILES): CC1CCN(c2ccnc3sc(C(N)=O)c(N)c23)CC1
- EC200 (ST-2): 0.23 µg/mL

- AUC [15]: 18800 ng·h/mL
Structure (SMILES): NC(=O)c1sc2nccc(N3CCCC(C(=O)O)C3)c2c1N (stereo not drawn)
- EC200 (ST-2): > 0.3 µg/mL
